Like-named read-outs stand apart in the source and are kept apart here.
Tests used:
[1] = biological target: recombinant human A2A receptors (Homo sapiens, UniProt P29274); assay: Radioligand competition binding to recombinant human A2A receptors in Sf9 cell membranes; conditions: Ki from competition binding, Sf9 cell membranes
[2] = tested on: liver ischemia/reperfusion injury; assay: Liver ischemia/reperfusion injury, serum GPT; format: in vivo, Mice; conditions: administered 6 hours prior to I/R injury; serum GPT 24 hours later; vs. a control compound and ATL146e; FIG. 17
Experimental: Mice were anesthetized by intraperitoneal injection of ketamine 100 mg/kg and xylazine 10 mg/kg. Glycopyrrolate (Robinul-V™) 0.05 mg/kg was delivered subcutaneously before the operation. The ambient temperature was controlled in the range of 24° C. to 26° C. Mice were placed on a 37° C. heat pad with their core temperature monitored by a TH-8 Thermalert™ Monitoring Thermometer (Physitemp) and maintained at 36-37° C. by a TCAT-1A Temperature Control and Alarm Unit (Physitemp) during the entire procedure. After midline laparotomy, a microaneurysm clip was applied to the hepatic triad above the bifurcation to clamp the flow of the hepatic artery, portal vein, and bile duct. […]
Serum GPT (ALT) levels were measured using a Transaminase kit (505, Sigma). Briefly, 20 μL serum sample was mixed with 100 (L pre-heated Alanine-α-KG substrate and incubated in a 37° C. water bath for 30 minutes. Then we added 100 (L Sigma Color Reagent to the reaction and left it at room temperature for 20 minutes. We stopped the reaction with 1.0 ml 0.4N sodium hydroxide solution. Absorbance of each sample at 505 nm was measured and converted into SF unit/ml.
The test compounds were administered 6 hours prior to I/R injury. Tissue protection is measured by amount of Serum GPT present in the in a serum sample 24 hours later, with smaller GPT concentrations indicating better liver function.

[3] = biological target: T1, human A1 AR (Homo sapiens, UniProt P30542); assay: Radioligand competition binding (125I-ABA) to human A1 AR in CHO K1 cell membranes; conditions: for Ki: Ki from competition binding, 125I-ABA, CHO K1 cell membranes; for A1/A2A: selectivity ratio A1 over A2A
T1 sequence (P30542 1-326): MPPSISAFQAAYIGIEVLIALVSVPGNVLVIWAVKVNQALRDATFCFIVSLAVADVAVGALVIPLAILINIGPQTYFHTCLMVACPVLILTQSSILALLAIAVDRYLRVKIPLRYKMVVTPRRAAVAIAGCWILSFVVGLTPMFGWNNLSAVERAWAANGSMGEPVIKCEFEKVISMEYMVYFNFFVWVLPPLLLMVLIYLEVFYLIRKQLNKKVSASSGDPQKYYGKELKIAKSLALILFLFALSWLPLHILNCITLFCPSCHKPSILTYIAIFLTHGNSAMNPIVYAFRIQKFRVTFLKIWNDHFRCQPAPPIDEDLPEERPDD

[4] = biological target: T2, A3 AR (Homo sapiens, UniProt P0DMS8); assay: Radioligand competition binding (125I-ABA) to human A3 AR in HEK 293 cell membranes; conditions: for Ki: Ki from competition binding, 125I-ABA, HEK 293 cell membranes; for A3/A2A: selectivity ratio A3 over A2A
T2 sequence (P0DMS8 1-318): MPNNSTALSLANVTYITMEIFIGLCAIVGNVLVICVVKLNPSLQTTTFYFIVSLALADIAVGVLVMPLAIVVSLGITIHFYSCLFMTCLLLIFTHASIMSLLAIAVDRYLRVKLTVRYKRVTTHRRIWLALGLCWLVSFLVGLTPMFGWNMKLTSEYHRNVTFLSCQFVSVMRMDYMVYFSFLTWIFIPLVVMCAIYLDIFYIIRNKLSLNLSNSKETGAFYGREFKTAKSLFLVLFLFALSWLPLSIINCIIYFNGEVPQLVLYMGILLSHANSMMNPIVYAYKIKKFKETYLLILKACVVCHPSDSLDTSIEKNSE

[5] = tested on: human neutrophils; assay: Human neutrophil oxidative activity, luminol-enhanced chemiluminescence; format: cell-based; conditions: for EC50: Homo sapiens, Neutrophil, read-out: PMN oxid (-log EC50) (converted); for EC50 / PMN oxid (-log EC50): human neutrophil experiment w/o Rolipram; for PMN oxid + roli (-log EC50): human neutrophil experiment w/Rolipram
In short: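 Purified human neutrophils (5–10×10^5/ml) pre-incubated 30 min at 37 °C with the A2A agonist, ± rolipram and ± TNF-α (1 U/ml), then stimulated with fMLP (1 μM final). Peak luminol-enhanced chemiluminescence expressed as percent of no-agonist control. EC50 from three donors.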

recombinant human A2A receptors, sequence (P29274 whole entry, the tested form may be a part): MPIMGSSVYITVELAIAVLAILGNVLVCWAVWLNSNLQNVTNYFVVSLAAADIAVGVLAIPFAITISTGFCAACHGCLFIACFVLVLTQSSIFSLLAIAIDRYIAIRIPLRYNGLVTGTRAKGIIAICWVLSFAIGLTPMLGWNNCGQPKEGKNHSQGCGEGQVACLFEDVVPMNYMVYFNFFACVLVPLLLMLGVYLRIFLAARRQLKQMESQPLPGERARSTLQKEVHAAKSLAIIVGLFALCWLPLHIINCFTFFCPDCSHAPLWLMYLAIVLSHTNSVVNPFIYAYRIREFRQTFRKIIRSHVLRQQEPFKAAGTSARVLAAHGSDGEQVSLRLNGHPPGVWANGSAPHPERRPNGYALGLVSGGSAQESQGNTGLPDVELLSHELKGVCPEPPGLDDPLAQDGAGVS

Row | Ki ([1]; A2A ± SEM) | Ki ([3]; A1 ± SEM) | A1/A2A [3] | Ki ([4]; A3 ± SEM) | A3/A2A [4] | EC50 [5] | PMN oxid + roli (-log EC50) [5] | Ki ([1]; read-out: A2A ± SEM) | Ki ([3]; read-out: A1 ± SEM) | Ki ([4]; read-out: A3 ± SEM) | PMN oxid (-log EC50) [5] | SMILES | duration of action for liver tissue protection (Serum GPT) [2]
1 | 0.92 ± 0.2 nM | 4.8 ± 0.3 nM | 5.2 | 0.7 ± 0.02 nM | 0.8 | 0.339 nM | 10.15 |  |  |  |  | CCNC(=O)[C@H]1O[C@@H](n2cnc3c(N)nc(C#C[C@]4(O)CCC[C@@H](C)C4)nc32)C(O)C1O (stereo in doubt) [JR-3223, 5-[6-Amino-2-(1-hydroxy-3-methylcyclohexylethynyl)purin-9-yl]-3,4-dihydroxytetrahydrofuran-2-carboxylic acid ethylamide] | longer duration of action
2 | 2 ± 0.25 nM | 15.3 ± 0.4 nM | 4.6 | 66.2 nM | 19.0 | 5.75 nM |  |  |  |  |  | CCNC(=O)[C@H]1O[C@@H](n2cnc3c(N)nc(C#CCN4CCN(c5ncccn5)CC4)nc32)C(O)C1O (stereo in doubt) [JR-3283, 5-{6-Amino-2-[3-(4-pyrimidin-2-yl-piperazin-1-yl)-prop-1-ynyl]-purin-9-yl}-3,4-dihydroxytetrahydrofuran-2-carboxylic acid ethylamide] | 
3 | 0.97 ± 0.33 nM | 34.6 ± 1.4 nM | 35.7 | 65.2 nM | 67.2 | 1.7 nM |  |  |  |  |  | CCNC(=O)[C@H]1O[C@@H](n2cnc3c(N)nc(C#CCC4CCN(C(=O)OC)CC4)nc32)C(O)C1O (stereo in doubt) [JR-4007, 4-{3-[6-Amino-9-(5-ethylcarbamoyl-3,4-dihydroxytetrahydrofuran-2-yl)-9H-purin-2-yl]-prop-2-ynyl}-piperidine-1-carboxylic acid methyl ester] | 
4 | 1.43 ± 0.23 nM | 167 nM | 116.4 | 86 nM | 60.1 | 3.55 nM |  |  |  |  |  | CCNC(=O)[C@H]1O[C@@H](n2cnc3c(N)nc(C#CCC4CCN(C(=O)OC(C)C)CC4)nc32)C(O)C1O (stereo in doubt) [JR-4009, 4-{3-[6-Amino-9-(5-ethylcarbamoyl-3,4-dihydroxytetrahydrofuran-2-yl)-9H-purin-2-yl]-prop-2-ynyl}-piperidine-1-carboxylic acid isopropyl ester] | 
5 | 0.61 ± 0.06 nM |  | 0.0 | 71.7 nM | 117.5 | 3.47 nM |  |  |  |  |  | CCNC(=O)[C@H]1O[C@@H](n2cnc3c(N)nc(C#CCC4CCN(C(=O)OCC(C)C)CC4)nc32)C(O)C1O (stereo in doubt) [JR-4011, 4-{3-[6-Amino-9-(5-ethylcarbamoyl-3,4-dihydroxytetrahydrofuran-2-yl)-9H-purin-2-yl]-prop-2-ynyl}-piperidine-1-carboxylic acid isobutyl ester] | 
6 | 0.8 nM | 100 nM | 125 | 100 nM | 125 | 2 nM |  |  |  |  |  | CCNC(=O)[C@H]1O[C@@H](n2cnc3c(N)nc(C#CC[C@H]4CC[C@H](COC(=O)OC)CC4)nc32)C(O)C1O (stereo partly drawn) [ATL214, N-Ethyl 2-{3-[trans-4-(methoxycarbonyloxymethyl)-cyclohexyl]-1-propyn-1-yl}adenosine-5′-uronamide] | 
7 |  |  | 42.2 |  | 150.7 |  | 8.57 | 0.7 ± 0.16 nM | 28.3 ± 7.3 nM | 101 ± 22 nM | 7.19 | COC(=O)C1CCC(CC#Cc2nc(N)c3ncn(C4OC(CO)C(O)C4O)c3n2)CC1 (stereo not drawn) [JR-2145] | 
8 |  |  | 19.0 |  | 96.7 |  | 8.57 | 0.9 ± 0.38 nM | 17.5 ± 5.2 nM | 89 ± 21 nM | 7.13 | CC(=O)OCC1CCC(CC#Cc2nc(N)c3ncn(C4OC(CO)C(O)C4O)c3n2)CC1 (stereo not drawn) [JR-2147] | 
9 |  |  | 10.8 |  | 6.7 |  | 9.9 | 0.7 ± 0.05 nM | 7.1 ± 1.1 nM | 4.4 ± 11 nM | 9.14 | CCNC(=O)C1OC(n2cnc3c(N)nc(C#CC4(O)CCCCC4)nc32)C(O)C1O (stereo not drawn) [JR-3089] | 
10 | 0.4 ± 0.05 nM | 8.5 ± 0.3 nM | 19.3 | 12.6 ± 3.6 nM | 28.6 | 0.661 nM | 10.07 |  |  |  |  | CCNC(=O)[C@H]1O[C@@H](n2cnc3c(N)nc(C#CC4(O)CCCC(C)C4)nc32)C(O)C1O (stereo partly drawn) [JR-3179, 5-[6-Amino-2-(1-hydroxy-3-methyl-cyclohexylethynyl)-purin-9-yl]-3,4-dihydroxytetrahydrofuran-2-carboxylic acid ethylamide] | 
11 |  |  | 4.2 |  | 9.3 |  | 8.08 | 3.4 ± 0.3 nM | 14.2 ± 1.08 nM | 31.6 ± 26.5 nM | 7.22 | CCNC(=O)C1OC(n2cnc3c(N)nc(C#CC4(N)CCCCC4)nc32)C(O)C1O (stereo not drawn) [JR-3205] | 
12 | 5.08 ± 0.81 nM | 19.5 ± 0.12 nM | 3.8 | 9 ± 5.5 nM | 1.8 | 50.1 nM | 8.21 |  |  |  |  | CCNC(=O)[C@H]1O[C@@H](n2cnc3c(N)nc(C#C[C@@]4(O)CCC[C@@H](C)C4)nc32)C(O)C1O (stereo partly drawn) [JR-3221, 5-[6-Amino-2-(1-hydroxy-3-methylcyclobexylethynyl)purin-9-yl]-3,4-dihydroxytetrahydrofuran-2-carboxylic acid ethylamide] | 
13 | 3.29 ± 0.49 nM | 13.8 ± 0.5 nM | 4.2 | 31.3 ± 9.3 nM | 9.5 | 43.7 nM | 8.42 |  |  |  |  | CCNC(=O)[C@H]1O[C@@H](n2cnc3c(N)nc(C#CCN4CCCCC4C(=O)OC)nc32)C(O)C1O (stereo partly drawn) [JR-3253, 1-{3-[6-Amino-9-(5-ethylcarbamoyl-3,4-dihydroxytetrahydrofuran-2-yl)-9H-purin-2-yl]-prop-2-ynyl}-piperidine-2-carboxylic acid methyl ester] | 
14 |  |  | 8.3 |  | 15.2 |  | 7.6 | 5.7 ± 1.8 nM | 47.3 ± 11.6 nM | 86.7 ± 3.75 nM | 6.4 | CCNC(=O)C1OC(n2cnc3c(N)nc(C#CCC4CCNCC4)nc32)C(O)C1O (stereo not drawn) [JR-3261] | 
